Earlier results in US20170002035A1, “NOVEL CRYSTALLINE FORMS OF AN ANTIVIRAL BENZIMIDAZOLE COMPOUND” (GlaxoSmithKline LLC, priority 1998, published 2017).

Conditions: amorphous material as disclosed in WO96/01833

Q: Which hygroscopicity does the source give for CC(C)Nc1nc2cc(Cl)c(Cl)cc2n1[C@H]1O[C@@H](CO)[C@H](O)[C@@H]1O [Form 1263W94, 5,6-dichloro-2-(isopropylamino)-1-(β-L-ribofuranosyl)-1H-benzimidazole] here?
A: hygroscopic
